Values after ≈ are worked out from the molar mass of the structure shown.
What was measured:
HP 43504 [1] = assay: Disc diffusion assay against HP for various compounds, HP 43504; type: cell-based, Helicobacter pylori; settings: for Disc diffusion diameter: 40 μl on 8 mm disc, 48 hours; for anti-HP activity compared to other compounds: HP 43504 lawn, disc diffusion
HP 238 [2] = assay: Disc diffusion assay against HP for various compounds, HP 238; type: cell-based, Helicobacter pylori; settings: for Disc diffusion diameter: 40 μl on 8 mm disc, 48 hours; for anti-HP activity compared to other compounds: HP 238 lawn, disc diffusion
[3] = ornithine transcarbamylase-deficient patients, median dose 352 mg/kg/day, 26-month follow-up; cited from earlier work
[4] = system: H. pylori ATCC43504 (HP 43504); assay: Minimum inhibitory concentration (MIC) against HP 43504; type: cell-based; settings: Helicobacter pylori
Method: (§1) The HP strains used in the present studies are H. pylori ATCC43504 (HP 43504) and HP 238. HP 238 was isolated from a patient with MALToma in National Cheng Kung University Hospital, Tainan, Taiwan, and used as an antibiotic sensitive control. These strains were cultured under a microaerophilic condition (O2 5%, CO2 10%, N2 85%) in a 37° C. chamber.

HP 43504 [5] = assay: Disc diffusion assay against HP for PB plus various antibiotics, HP 43504; type: cell-based, Helicobacter pylori; settings: HP 43504, CDC agar, 8 mm disc, 48 hours; AMO 0.015 μg/20 μl, MTZ 5 μg/20 μl, TC 0.5 μg/20 μl, plus 20 μl water or 4-PB 2 mg/20 μl
Method: (§2) HP 43504 and […] were further used for testing PB in combination with various antibiotics in disc diffusion assays. After 2 days' pre-culture in a microaerophilic condition (O2 5%, CO2 10%, N2 85%) at 37° C., HP was suspended in a Brucella broth containing 5% sucrose to adjust its clone density at 1×10^8 CFU/ml. Then 100 μl of the bacterial suspension was inoculated onto a CDC agar plate. […] The agar plates were later transferred to a microaerobic jar to incubate at 37° C. The diameter of each inhibition zone (clear zone size) in the bacterial lawn was measured 48 hours later. The tested combinations used in this experiment comprised 4-PB (50 mg/ml) with amoxicillin (AMO), metronidazole (MTZ) or tetracycline (TC).

HP 238 [6] = assay: Disc diffusion assay against HP for PB plus various antibiotics, HP 238; type: cell-based, Helicobacter pylori; settings: HP 238, CDC agar, 8 mm disc, 48 hours; AMO 0.015 μg/20 μl, MTZ 5 μg/20 μl, TC 0.5 μg/20 μl, plus 20 μl water or 4-PB 2 mg/20 μl
Method: as §2, with “The tested combinations used in this experiment comprised 4-PB (50 mg/ml) with amoxicillin (AMO), metronidazole (MTZ) or tetracycline (TC).” left out

HP 238 [7] = assay: Minimum inhibitory concentration (MIC) against HP 238; type: cell-based; settings: Helicobacter pylori; against clinically isolated strain HP 238
Method: as §1

[8] = HP 43504, Brucella agar, 50 mg/ml
[9] = HP 43504, Brucella agar, 100 mg/ml
[10] = HP 238, Brucella agar, 50 mg/ml
[11] = HP 238, Brucella agar, 100 mg/ml
[12] = HP 43504, 100 mg/ml, no clear zone outside the paper disc
[13] = HP 238, 100 mg/ml, no clear zone outside the paper disc

Compound | Disc diffusion diameter (HP 43504 [1]; [9]) [mm] | Disc diffusion diameter (HP 43504 [1]; HP 43504, CDC agar, 50 mg/ml) [mm] | Disc diffusion diameter (HP 238 [2]; [11]) [mm] | Disc diffusion diameter (HP 238 [2]; HP 238, CDC agar, 50 mg/ml) [mm] | anti-HP activity (HP 43504 [1]; [12]) | Disc diffusion diameter (HP 43504 [1]; HP 43504, CDC agar, 100 mg/ml) [mm] | anti-HP activity (HP 238 [2]; [13]) | Disc diffusion diameter (HP 238 [2]; HP 238, CDC agar, 100 mg/ml) [mm] | MIC [4] [µg/mL] | diameter of inhibition zone (clear zone size) (HP 43504 [5]) [mm] | diameter of inhibition zone (clear zone size) (HP 238 [6]) [mm] | also measured
4-phenylbutyrate [4-PB] | 45 | 17 | 64 | 23 |  |  |  |  |  |  |  | Disc diffusion diameter (HP 43504 [1]; HP 43504, Brucella agar, 5 mg/ml): 8 mm; Disc diffusion diameter (HP 43504 [1]; HP 43504, Brucella agar, 25 mg/ml): 8 mm; Disc diffusion diameter (HP 43504 [1]; [8]): 33 mm; Disc diffusion diameter (HP 43504 [1]; HP 43504, CDC agar, 5 mg/ml): 8 mm; Disc diffusion diameter (HP 43504 [1]; HP 43504, CDC agar, 25 mg/ml): 8 mm; anti-HP activity compared to other compounds (HP 43504 [1]): much better anti-HP activity; Disc diffusion diameter (HP 238 [2]; HP 238, Brucella agar, 5 mg/ml): 8 mm; Disc diffusion diameter (HP 238 [2]; HP 238, Brucella agar, 25 mg/ml): 26 mm; Disc diffusion diameter (HP 238 [2]; [10]): 40 mm; Disc diffusion diameter (HP 238 [2]; HP 238, CDC agar, 5 mg/ml): 8 mm; Disc diffusion diameter (HP 238 [2]; HP 238, CDC agar, 25 mg/ml): 9 mm; anti-HP activity compared to other compounds (HP 238 [2]): much better anti-HP activity; side effects related to therapy [3]: neither hyperammonemic episodes requiring hospitalization nor side effects related to therapy occurred
NCCC(N)C(=O)O (centres unmarked) [2,4-DAB, 2,4-diaminobutyric acid] | 8 |  | 8 |  | no obvious anti-HP activity | 8 | no obvious anti-HP activity | 8 |  |  |  | 
CCC(N)C(=O)O (centres unmarked) [2-AB, 2-aminobutyric acid] | 8 |  | 8 |  | no obvious anti-HP activity | 8 | no obvious anti-HP activity | 8 |  |  |  | 
CCC(C(=O)O)c1ccccc1 (centres unmarked) [2-PB, 2-phenylbutyrate] |  | 8 |  | 14 |  |  |  |  |  |  |  | Disc diffusion diameter (HP 43504 [1]; [8]): 18 mm; anti-HP activity compared to other compounds (HP 43504 [1]): much better anti-HP activity; Disc diffusion diameter (HP 238 [2]; [10]): 24 mm; anti-HP activity compared to other compounds (HP 238 [2]): much better anti-HP activity
CCCC(=O)[O-].[Na+] [Butyrate, Sodium butyrate] |  | 8 |  | 11 |  |  |  |  |  |  |  | disc diffusion capacity (HP 43504 [1]; HP 43504, compared with 4-PB or 2-PB): much smaller than 4-PB or 2-PB; disc diffusion capacity (HP 238 [2]; HP 238, compared with 4-PB or 2-PB): much smaller than 4-PB or 2-PB
NCCCC(=O)O [GABA, gama-aminobutyric acid] | 8 |  | 8 |  | no obvious anti-HP activity | 8 | no obvious anti-HP activity | 8 |  |  |  | 
CCCC(CCC)C(=O)[O-].[Na+] [Valproate, sodium valproate] |  |  |  |  |  |  |  |  |  |  |  | anti-HP activity (HP 43504 [1]; HP 43504, 2 mg/ml to 16 mg/ml): no obvious anti-HP activity; Disc diffusion diameter (HP 43504 [1]; HP 43504, CDC agar, 2 mg/ml): 8 mm; Disc diffusion diameter (HP 43504 [1]; HP 43504, CDC agar, 4 mg/ml): 8 mm; Disc diffusion diameter (HP 43504 [1]; HP 43504, CDC agar, 8 mg/ml): 8 mm; Disc diffusion diameter (HP 43504 [1]; HP 43504, CDC agar, 16 mg/ml): 8 mm; anti-HP activity (HP 238 [2]; HP 238, 2 mg/ml to 16 mg/ml): no obvious anti-HP activity; Disc diffusion diameter (HP 238 [2]; HP 238, CDC agar, 2 mg/ml): 8 mm; Disc diffusion diameter (HP 238 [2]; HP 238, CDC agar, 4 mg/ml): 8 mm; Disc diffusion diameter (HP 238 [2]; HP 238, CDC agar, 8 mg/ml): 8 mm; Disc diffusion diameter (HP 238 [2]; HP 238, CDC agar, 16 mg/ml): 8 mm
CC1(C)S[C@@H]2[C@H](NC(=O)[C@H](N)c3ccc(O)cc3)C(=O)N2[C@H]1C(=O)O [amoxicillin] |  |  |  |  |  |  |  |  | 0.12 (≈ 0.328 µM) | 8 | 8 | 
Cc1ncc([N+](=O)[O-])n1CCO [metronidazole] |  |  |  |  |  |  |  |  | 256 (≈ 1500 µM) | 8 | 16 | MIC (HP 238 [7]): 0.25 µg/mL (≈ 1.46 µM)
CN(C)[C@@H]1C(O)=C(C(N)=O)C(=O)[C@@]2(O)C(O)=C3C(=O)c4c(O)cccc4[C@@](C)(O)[C@H]3C[C@@H]12 [tetracycline] |  |  |  |  |  |  |  |  | 1 (≈ 2.25 µM) | 8 | 15 | 
